Molecules are shown by their SMILES. Some results are limits rather than exact numbers.

Test [1] deals with T1, human A1 subtype adenosine receptor (Homo sapiens, UniProt P30542).
T1 construct: expressed in transfected cells; host or cells: CHO-K1
T1 sequence (P30542 1-326): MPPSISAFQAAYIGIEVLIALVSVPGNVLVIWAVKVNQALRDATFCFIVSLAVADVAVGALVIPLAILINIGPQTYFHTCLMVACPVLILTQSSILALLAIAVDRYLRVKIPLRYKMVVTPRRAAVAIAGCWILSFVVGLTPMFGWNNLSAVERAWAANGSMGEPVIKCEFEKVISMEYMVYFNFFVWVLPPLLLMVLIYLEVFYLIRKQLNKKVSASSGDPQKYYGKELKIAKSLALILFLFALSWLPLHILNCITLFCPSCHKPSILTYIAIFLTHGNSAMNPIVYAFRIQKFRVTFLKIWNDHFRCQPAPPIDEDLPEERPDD
Description: Affinity towards the adenosine A1 receptor ([3H]-DPCPX binding, CHO-K1 membranes). As to conditions: read-out: A1 Ki (nM) ± sd.

Test [2] concerns the target β2 (Homo sapiens, UniProt P07550). The test is described as follows: Receptor binding study, β2. As to conditions: mean values, n = 2, read-out: percent inhibition of control specific binding.
For test [3], the target named is M2 (Homo sapiens, UniProt P08172). Description: Receptor binding study, M2. As to conditions: mean values, n = 2, read-out: percent inhibition of control specific binding.
Test [4] concerns NMDA. Description: Receptor binding study, NMDA. The conditions noted are these: 1 μM; mean values, n = 2.
Test [5] concerns GABAa. Description: Receptor binding study, GABAa. The conditions noted are these: 1 μM; mean values, n = 2.
Test [6] deals with NE transporter (Homo sapiens, UniProt P23975). The test is described as follows: Receptor binding study, NE transporter. The conditions noted are these: mean values, n = 2, read-out: percent inhibition of control specific binding.
Test [7] has as its target 5-HT2A (Homo sapiens, UniProt P28223). The test is described as follows: Receptor binding study, 5-HT2A. The conditions noted are these: mean values, n = 2, read-out: percent inhibition of control specific binding.
For test [8], the target named is 5-HT2C (h) (Homo sapiens, UniProt P28335). Description: Receptor binding study, 5-HT2C. The conditions noted are these: mean values, n = 2, read-out: percent inhibition of control specific binding.
The target of test [9] is M4 (Homo sapiens, UniProt P08173). Description: Receptor binding study, M4. The conditions noted are these: mean values, n = 2, read-out: percent inhibition of control specific binding.
The subject of test [10] is α1(non-selective). Description: Receptor binding study, α1. The conditions noted are these: 1 μM; mean values, n = 2.
The target in test [11] is DA transporter (Homo sapiens, UniProt Q01959). Description: Receptor binding study, DA transporter. The conditions noted are these: mean values, n = 2, read-out: percent inhibition of control specific binding.
For test [12], the target named is M3 (Homo sapiens, UniProt P20309). Description: Receptor binding study, M3. The conditions noted are these: mean values, n = 2, read-out: percent inhibition of control specific binding.
Test [13] concerns the target D2 (Homo sapiens, UniProt P14416). Description: Receptor binding study, D2. As to conditions: mean values, n = 2, read-out: percent inhibition of control specific binding.
The target of test [14] is 5-HT6 (h) (Homo sapiens, UniProt P50406). The test is described as follows: Receptor binding study, 5-HT6. As to conditions: mean values, n = 2, read-out: percent inhibition of control specific binding.
In test [15] the target is D5 (h) (Homo sapiens, UniProt P21918). The test is described as follows: Receptor binding study, D5. As to conditions: mean values, n = 2, read-out: percent inhibition of control specific binding.
For test [16], the target named is H1 (central) (Cavia porcellus, UniProt P31389). Description: Receptor binding study, H1 (central). The conditions noted are these: mean values, n = 2, read-out: percent inhibition of control specific binding.
The target of test [17] is 5-HT4 (Homo sapiens, UniProt Q13639). The test is described as follows: Receptor binding study, 5-HT4. The conditions noted are these: mean values, n = 2, read-out: percent inhibition of control specific binding.
Test [18] concerns the target D3 (Homo sapiens, UniProt P35462). The test is described as follows: Receptor binding study, D3. As to conditions: mean values, n = 2, read-out: percent inhibition of control specific binding.
For test [19], the system named is P2Y. Description: Receptor binding study, P2Y. The conditions noted are these: 1 μM; mean values, n = 2.
The target of test [20] is T2, M5 (Homo sapiens, UniProt P08912).
T2 sequence (P08912 1-532): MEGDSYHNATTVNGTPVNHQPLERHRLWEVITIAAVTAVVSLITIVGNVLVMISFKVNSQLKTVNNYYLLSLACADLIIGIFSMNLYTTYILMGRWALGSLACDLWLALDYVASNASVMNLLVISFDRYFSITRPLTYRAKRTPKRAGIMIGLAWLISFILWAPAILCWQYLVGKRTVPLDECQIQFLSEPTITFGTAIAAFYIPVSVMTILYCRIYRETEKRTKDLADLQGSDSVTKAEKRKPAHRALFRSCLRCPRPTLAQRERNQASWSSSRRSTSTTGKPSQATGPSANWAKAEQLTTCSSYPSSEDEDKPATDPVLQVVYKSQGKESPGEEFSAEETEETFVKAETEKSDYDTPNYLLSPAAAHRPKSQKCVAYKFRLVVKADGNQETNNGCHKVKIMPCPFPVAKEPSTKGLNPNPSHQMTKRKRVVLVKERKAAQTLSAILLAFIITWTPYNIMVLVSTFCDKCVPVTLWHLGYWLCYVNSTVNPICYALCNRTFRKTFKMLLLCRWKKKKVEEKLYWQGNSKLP
The test is described as follows: Receptor binding study, M5. As to conditions: 1 μM; mean values, n = 2; read-out: percent inhibition of control specific binding.

Test [21] deals with Opiate (non-selective). Description: Receptor binding study, Opiate (non-selective). As to conditions: 1 μM; mean values, n = 2.
Test [22] concerns the target T3, human A2b receptor (Homo sapiens, UniProt P29275).
T3 construct: expressed in transfected cells; host or cells: HEK 293
T3 sequence (P29275 1-332): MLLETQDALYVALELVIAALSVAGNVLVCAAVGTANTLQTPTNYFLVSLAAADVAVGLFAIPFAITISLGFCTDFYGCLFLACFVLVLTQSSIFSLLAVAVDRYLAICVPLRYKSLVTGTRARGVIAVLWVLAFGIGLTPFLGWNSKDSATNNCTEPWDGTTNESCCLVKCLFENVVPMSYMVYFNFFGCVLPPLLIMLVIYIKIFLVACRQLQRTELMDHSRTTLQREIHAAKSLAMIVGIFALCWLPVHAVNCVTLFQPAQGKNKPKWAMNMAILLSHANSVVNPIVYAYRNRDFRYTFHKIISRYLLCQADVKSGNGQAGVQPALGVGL
Description: Affinity towards the adenosine A2b receptor ([3H]-DPCPX binding, HEK 293 membranes). The conditions noted are these: read-out: A2b Ki (nM) ± sd. The procedure: The interactive capacity of each product towards the adenosine A2b receptor was evaluated using membranes from HEK 293 cells stably expressing the human A2b receptor subtype exclusively.
Non-specific binding was measured in the presence of NECA (50 μM).
In binding studies for each compound, eight different concentrations (from 10^−5 M to 10^−12 M) were evaluated in order to obtain competition curves. By means of non-linear regression analysis of the competition curves, the IC50 values, which express the binding affinity of each product, were determined. Using the Cheng Prusoff equation (Ki=IC50/1+(L/Kd)) Ki values were calculated through which the affinity of each product studied, for the receptor investigated, is expressed.

Test [23] deals with GABAtransporter. The test is described as follows: Receptor binding study, GABA transporter. As to conditions: 1 μM; mean values, n = 2.
The target of test [24] is 5-HT5A (h) (Homo sapiens, UniProt P47898). The test is described as follows: Receptor binding study, 5-HT5A. As to conditions: mean values, n = 2, read-out: percent inhibition of control specific binding.
Sequence of 5-HT5A (h) (P47898 whole entry): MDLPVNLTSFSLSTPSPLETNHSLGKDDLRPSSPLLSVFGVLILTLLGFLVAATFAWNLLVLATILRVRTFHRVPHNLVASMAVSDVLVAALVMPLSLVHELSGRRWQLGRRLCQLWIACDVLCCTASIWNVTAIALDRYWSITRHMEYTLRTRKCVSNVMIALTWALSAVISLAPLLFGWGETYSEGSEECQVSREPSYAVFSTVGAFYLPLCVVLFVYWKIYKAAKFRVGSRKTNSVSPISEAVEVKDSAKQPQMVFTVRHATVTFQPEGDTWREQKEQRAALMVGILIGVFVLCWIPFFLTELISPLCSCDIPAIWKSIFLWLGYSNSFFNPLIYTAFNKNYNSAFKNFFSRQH

Sequence of 5-HT4 (Q13639 whole entry, species assumed): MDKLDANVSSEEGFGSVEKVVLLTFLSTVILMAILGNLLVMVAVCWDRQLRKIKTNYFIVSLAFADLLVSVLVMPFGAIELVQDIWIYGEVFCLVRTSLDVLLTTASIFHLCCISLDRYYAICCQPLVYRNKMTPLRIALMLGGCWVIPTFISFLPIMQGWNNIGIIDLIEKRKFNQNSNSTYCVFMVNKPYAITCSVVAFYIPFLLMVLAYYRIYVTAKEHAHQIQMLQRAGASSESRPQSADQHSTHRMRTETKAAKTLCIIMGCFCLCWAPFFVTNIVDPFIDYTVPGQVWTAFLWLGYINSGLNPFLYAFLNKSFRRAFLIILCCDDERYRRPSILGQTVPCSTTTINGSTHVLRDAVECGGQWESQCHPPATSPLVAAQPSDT
Sequence of M4 (P08173 whole entry): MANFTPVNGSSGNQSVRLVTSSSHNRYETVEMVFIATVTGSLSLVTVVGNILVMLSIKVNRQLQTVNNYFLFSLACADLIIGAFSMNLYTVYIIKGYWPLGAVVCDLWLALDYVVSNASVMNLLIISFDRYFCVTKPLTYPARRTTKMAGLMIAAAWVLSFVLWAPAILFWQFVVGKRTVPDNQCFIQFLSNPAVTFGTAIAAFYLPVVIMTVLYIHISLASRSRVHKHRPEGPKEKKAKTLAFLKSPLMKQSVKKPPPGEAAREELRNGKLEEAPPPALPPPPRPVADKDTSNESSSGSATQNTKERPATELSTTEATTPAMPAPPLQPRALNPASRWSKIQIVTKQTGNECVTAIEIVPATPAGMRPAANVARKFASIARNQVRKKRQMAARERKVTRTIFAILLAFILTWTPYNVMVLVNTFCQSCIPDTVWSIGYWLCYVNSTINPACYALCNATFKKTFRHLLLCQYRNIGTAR
Sequence of D2 (P14416 whole entry): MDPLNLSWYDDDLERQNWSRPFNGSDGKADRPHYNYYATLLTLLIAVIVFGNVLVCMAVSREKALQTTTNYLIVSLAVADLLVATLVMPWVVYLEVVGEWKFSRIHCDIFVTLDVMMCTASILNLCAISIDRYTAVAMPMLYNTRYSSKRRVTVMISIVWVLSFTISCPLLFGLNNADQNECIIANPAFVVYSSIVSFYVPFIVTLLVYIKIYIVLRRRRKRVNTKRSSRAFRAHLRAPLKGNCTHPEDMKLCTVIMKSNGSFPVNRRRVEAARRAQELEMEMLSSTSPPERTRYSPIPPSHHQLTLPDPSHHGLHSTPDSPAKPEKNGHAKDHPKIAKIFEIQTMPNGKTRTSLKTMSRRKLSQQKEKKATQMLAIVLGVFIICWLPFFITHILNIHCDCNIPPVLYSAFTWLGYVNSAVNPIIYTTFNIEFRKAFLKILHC
Sequence of NE transporter (P23975 whole entry): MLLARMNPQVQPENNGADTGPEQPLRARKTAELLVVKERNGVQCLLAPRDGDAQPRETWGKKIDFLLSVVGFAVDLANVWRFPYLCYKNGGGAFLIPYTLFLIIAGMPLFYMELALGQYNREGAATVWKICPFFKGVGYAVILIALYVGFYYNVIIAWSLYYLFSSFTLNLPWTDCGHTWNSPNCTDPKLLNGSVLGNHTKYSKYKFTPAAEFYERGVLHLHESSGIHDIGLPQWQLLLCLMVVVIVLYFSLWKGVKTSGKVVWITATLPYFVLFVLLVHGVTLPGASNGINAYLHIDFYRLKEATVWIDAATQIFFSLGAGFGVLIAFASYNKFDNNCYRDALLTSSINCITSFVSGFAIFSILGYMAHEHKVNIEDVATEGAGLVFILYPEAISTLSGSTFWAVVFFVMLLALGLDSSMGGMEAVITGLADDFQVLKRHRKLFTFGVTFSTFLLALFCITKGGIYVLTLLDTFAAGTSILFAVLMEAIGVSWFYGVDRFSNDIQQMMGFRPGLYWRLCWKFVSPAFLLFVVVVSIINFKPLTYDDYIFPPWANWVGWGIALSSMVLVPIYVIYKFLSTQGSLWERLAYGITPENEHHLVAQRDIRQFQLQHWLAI
Sequence of β2 (P07550 whole entry): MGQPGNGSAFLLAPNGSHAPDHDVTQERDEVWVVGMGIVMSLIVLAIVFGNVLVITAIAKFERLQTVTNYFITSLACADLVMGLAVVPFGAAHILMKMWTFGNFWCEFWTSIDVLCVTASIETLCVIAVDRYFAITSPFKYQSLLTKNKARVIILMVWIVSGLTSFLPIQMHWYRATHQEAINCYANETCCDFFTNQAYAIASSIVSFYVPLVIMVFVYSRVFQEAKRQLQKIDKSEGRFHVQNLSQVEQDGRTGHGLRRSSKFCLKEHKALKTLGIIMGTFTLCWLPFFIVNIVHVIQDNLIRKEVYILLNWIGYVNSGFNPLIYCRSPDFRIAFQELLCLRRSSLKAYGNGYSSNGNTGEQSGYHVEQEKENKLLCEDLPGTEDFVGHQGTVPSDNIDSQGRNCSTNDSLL
Sequence of D3 (P35462 whole entry): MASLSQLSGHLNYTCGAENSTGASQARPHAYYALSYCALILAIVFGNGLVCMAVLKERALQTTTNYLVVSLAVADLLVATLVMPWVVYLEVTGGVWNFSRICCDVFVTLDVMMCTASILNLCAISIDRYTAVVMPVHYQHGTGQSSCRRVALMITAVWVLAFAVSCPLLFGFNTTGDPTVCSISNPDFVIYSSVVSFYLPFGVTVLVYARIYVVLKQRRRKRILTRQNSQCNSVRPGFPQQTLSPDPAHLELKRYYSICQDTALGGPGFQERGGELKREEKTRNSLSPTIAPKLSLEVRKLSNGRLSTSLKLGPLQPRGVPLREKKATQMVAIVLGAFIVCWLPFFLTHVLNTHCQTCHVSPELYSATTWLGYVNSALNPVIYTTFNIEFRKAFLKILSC
Sequence of D5 (h) (P21918 whole entry): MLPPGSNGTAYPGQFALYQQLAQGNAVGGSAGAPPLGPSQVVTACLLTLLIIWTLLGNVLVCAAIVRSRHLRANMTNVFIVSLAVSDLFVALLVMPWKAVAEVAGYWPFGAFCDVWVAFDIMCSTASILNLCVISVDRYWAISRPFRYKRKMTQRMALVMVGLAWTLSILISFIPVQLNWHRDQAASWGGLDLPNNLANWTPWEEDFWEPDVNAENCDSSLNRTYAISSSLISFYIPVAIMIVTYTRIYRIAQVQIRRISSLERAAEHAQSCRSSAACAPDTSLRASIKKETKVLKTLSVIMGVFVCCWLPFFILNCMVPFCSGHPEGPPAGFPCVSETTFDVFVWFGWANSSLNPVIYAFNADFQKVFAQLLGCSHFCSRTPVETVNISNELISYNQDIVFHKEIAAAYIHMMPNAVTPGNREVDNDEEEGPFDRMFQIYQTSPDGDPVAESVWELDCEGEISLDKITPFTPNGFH
Sequence of 5-HT2A (P28223 whole entry, species assumed): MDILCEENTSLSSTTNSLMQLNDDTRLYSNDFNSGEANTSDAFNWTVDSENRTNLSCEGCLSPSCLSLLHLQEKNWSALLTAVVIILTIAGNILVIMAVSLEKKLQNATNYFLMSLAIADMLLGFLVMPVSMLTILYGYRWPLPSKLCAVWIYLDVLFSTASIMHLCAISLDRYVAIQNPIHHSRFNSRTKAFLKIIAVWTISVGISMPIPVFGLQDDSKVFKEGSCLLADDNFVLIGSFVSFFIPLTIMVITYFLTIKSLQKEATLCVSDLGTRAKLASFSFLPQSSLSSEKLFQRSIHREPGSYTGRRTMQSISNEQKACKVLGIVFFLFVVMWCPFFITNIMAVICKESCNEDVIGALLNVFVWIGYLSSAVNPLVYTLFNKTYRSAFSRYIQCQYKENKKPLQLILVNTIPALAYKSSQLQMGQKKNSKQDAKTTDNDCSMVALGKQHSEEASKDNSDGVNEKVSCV
Sequence of DA transporter (Q01959 whole entry, species assumed): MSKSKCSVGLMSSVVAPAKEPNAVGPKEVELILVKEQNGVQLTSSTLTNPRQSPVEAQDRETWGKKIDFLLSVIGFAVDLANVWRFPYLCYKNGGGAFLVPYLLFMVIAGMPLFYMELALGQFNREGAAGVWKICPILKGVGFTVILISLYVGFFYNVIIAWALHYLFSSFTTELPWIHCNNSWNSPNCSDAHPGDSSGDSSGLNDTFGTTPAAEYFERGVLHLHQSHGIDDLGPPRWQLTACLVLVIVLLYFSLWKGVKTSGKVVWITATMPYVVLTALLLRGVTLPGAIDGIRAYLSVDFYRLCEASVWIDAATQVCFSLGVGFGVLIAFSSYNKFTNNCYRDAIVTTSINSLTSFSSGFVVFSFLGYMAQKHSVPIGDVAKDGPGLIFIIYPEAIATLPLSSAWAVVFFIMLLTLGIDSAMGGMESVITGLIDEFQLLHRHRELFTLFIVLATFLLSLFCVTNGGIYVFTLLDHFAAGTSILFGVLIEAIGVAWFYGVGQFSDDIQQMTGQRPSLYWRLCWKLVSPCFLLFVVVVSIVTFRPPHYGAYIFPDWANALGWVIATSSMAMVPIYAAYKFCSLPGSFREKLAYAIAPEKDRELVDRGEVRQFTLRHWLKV

For orientation: Ki means a dissociation constant, usually derived from enzyme kinetics or from competition with a known ligand. A word on the inhibition: it is the percentage by which the read-out fell short of the control. For the molecule `CCCCc1nc(N)c2nc(-n3nccn3)n(C)c2n1` [ST 1535, 2-butyl-9-methyl-8-(2H-1,2,3-triazol-2-yl)-9H-purine-6-ylamine], the Ki is 107 ± 40 nM in [1] and 627 ± 45 nM in [22]. The inhibition at 1 µM in [2], in test [3], in test [6], in [7], in test [8] and in test [9] was less than 10% throughout. Moreover, the inhibition at 1 µM in test [11], in test [12], in [13], in test [14], in [15] and in test [16] was less than 10% throughout. Further, the inhibition at 1 µM in test [17], in test [18], in [20] and in [24] was less than 10% each time. In addition, the “percent inhibition of control specific binding” value in test [4], in [5], in [10], in test [19], in [21] and in test [23] was “— (The symbol — indicates an inhibition of less than 10%.)” in each case.

With `CCCCCc1nc(N)c2nc(-n3nccn3)n(C)c2n1` [ST 2097, 9-methyl-2-pentyl-8-(2H-1,2,3-triazol-2-yl)-9H-purine-6-ylamine], the inhibition constant Ki in test [1] is 26.2 ± 6.55 nM; in [22], 153 ± 13 nM. Further, the inhibition at 1 µM in test [2], in test [3], in test [6], in test [7], in test [8] and in [9] was less than 10% in each case. The inhibition at 1 µM in test [11], in test [12], in test [13], in [14], in [15] and in test [16] was less than 10% in each case. The inhibition at 1 µM in test [17], in test [18], in test [20] and in test [24] was less than 10% each time. Also, the “percent inhibition of control specific binding” value in test [4], in [5], in test [10], in [19], in [21] and in [23] was “— (The symbol — indicates an inhibition of less than 10%.)” throughout.

The record behind these values is patent publication US7528252B2, “Derivatives of triazoly-imidazopyridine useful as ligands of the adenosine A2a receptor and their use as medicaments” (Sigma-Tau Industrie Farmaceutiche Riunite S.p.A., priority 2002, dated 2009).
